Data from paper PMC11106165, “Repurposing the KCa3.1 Blocker Senicapoc for Ischemic Stroke” (Translational Stroke Research, 2023).
Where two headings read alike, the source gives them in different places.

Assays:
[1] = humans; cited from earlier work
[2] = set-up: method as in PMID 31019997; settings: mice; cited from earlier work
[3] = Plasma protein binding by rapid equilibrium dialysis; assay type: in vitro ADME; settings: mouse plasma, triplicate
Protocol: (§1) In order to determine whether senicapoc sufficiently engages its target, additional mice were subjected to 60 min of MCAO, treated with 40 mg/kg senicapoc IP 12 h after reperfusion and then sacrificed 1 h, 4 h, and 12 h later. Mice were deeply anesthetized with isoflurane, and blood was collected from the vena cava into EDTA tubes, and then transcardially perfused with 30 mL of saline. The brain was removed, and the forebrain divided into ipsi- and contralateral side. Brain and plasma samples were stored at − 80 °C pending analysis and then prepared and analyzed as previously described using a Waters Acquity UPLC (Waters, NY) equipped with a Acquity UPLC BEH 1.7 μm C-18 column interfaced to a TSQ Quantum Access Max mass spectrometer (Thermo Fisher Scientific, MA). Senicapoc was analyzed by the selective reaction monitoring transition of its molecular ion peak 324.09 (M + 1) into 228.07, 200.07, 183.11, and 122.18 m/z. An 8-point calibration curve ranging from 50 nM to 10 μM was used for quantification. Senicapoc plasma protein binding was determined with mouse plasma or mouse brain extract in triplicate using rapid equilibrium devices with a molecular weight cutoff of 8 kD (RED, Fisher Scientific).

human tPA = molecular target: T1, human tPA (Homo sapiens, UniProt P00750); assay: Chromogenic tPA activity assay; assay type: biochemical; settings: 0.5 μM and 5 μM, 30-min assay, PBS with 10% human serum
T1 construct: purchased Abcam ab108905
From the text: The commercially available tPA Activity Assay Kit (Abcam, ab108905) was used to assess whether senicapoc and TRAM-34 affect the ability of human tPA to cleave its substrate plasminogen similar to protocols published by Lapchak and Boitano [38] and Lapchak et al.. Reactions were run in optically clear flat-bottom 96-well plates (Corning, Catalog #3904). Human plasminogen activator inhibitor-1 (PAI-1; Sigma-Aldrich CC4075) was used as a positive control. Human plasminogen, the chromogenic plasmin substrate, and human tPA were included in the tPA Activity Assay Kit. […] The reactions were pre-incubated at 37 °C for 5 min prior to the addition of the chromogenic plasmin substrate and subsequently placed in a heated SpectraMax M5 spectrophotometer. Absorbances at 405 nm were measured every 30 s for 30 min.

[4] = Brain tissue extract binding by rapid equilibrium dialysis; assay type: in vitro ADME; settings: mouse brain extract, triplicate
Protocol: as §1

[5] = system: male C57BL/6 J mice, tMCAO; assay: RT-qPCR of inflammatory markers in brain on day 8 after tMCAO; assay type: in vivo, mouse
Protocol: After MRIs were completed, mice were euthanized with an overdose of isoflurane, brains harvested, split into ipsilateral and contralateral hemispheres, and immediately frozen with liquid N2. Brain hemispheres were homogenized in mortar and pestles with liquid N2. RNA was extracted from brain homogenates (Fig. 7b) or MMC cell pellets (Fig. 2) with Trizol (ThermoFisher, Catalog # 15,596,026) according to the manufacturer’s protocol. RNA purity and concentration were assessed using a Nanodrop Spectrophotometer ND-1000 (Marshall Scientific). The 260 nm/280 nm absorption ratios for the samples ranged from 1.95 to 2.00. Subsequently, a cDNA library was made with a High-Capacity cDNA Reverse Transcription Kit (ThermoFisher Scientific, Catalog# 4,374,967), with 2 µg of total RNA per […]. Reactions were carried out in a PTC-200 Peltier Thermal Cycler; the conditions were as follows: 25 °C for 10 min, 37 °C for 120 min, 85 °C for 5 min, with final storage at 4 °C. RT-qPCR reactions were conducted in an Applied Biosystems Viia7 Real-Time PCR System using Maxima SYBR Green/ROX qPCR Master Mix (ThermoFisher Scientific, Catalog #K022) and with the recommended three-step cycling protocol. All CT values were normalized to the geometric mean of three housekeeping genes, β-actin, GAPDH, and 18S, as recommended by Vandesompele et al.. Fold change was calculated by the ∆∆Ct method. Primer sequences are provided in Supplementary Table 1. For brain samples, relative mRNA levels were generated by normalizing to sham.
Statistical analysis of infarct percentage comparing two groups was performed using unpaired t-test. Statistical analysis of three groups (e.g., vehicle vs senicapoc 10 mg/kg vs senicapoc 40 mg/kg) was performed with analysis of variance (ANOVA) with a post hoc pair-wise comparison using Tukey’s test (Origin software), as previously described. All data are shown as box-and-whisker plots with an overlay of the individual animal data. The boxes show mean ± S.E.M, and the whiskers show confidence intervals. The categorical neurological scoring data in Fig. 3 b is shown as a scatter plot without means or S.E.M and was analyzed with the Mann–Whitney U test as per recommendations for optimal presentation and analysis of non-parametric data in pre-clinical stroke studies by Dirnagl. For the IHC data in Fig. 5 comparing two groups, unpaired t-tests were performed. The brain qPCR data in Fig. 7 was analyzed in Prism using one-way ANOVA followed by Dunnett’s test to correct for multiple comparisons. For all statistical testing, P < 0.05 was used as the level of significance. * = P < 0.05, ** = P < 0.01, *** = P < 0.001.

[6] = fold-change relative to sham, day 8, adjusted P 0.01
[7] = fold-change relative to sham, day 8, adjusted P <0.001

T1 sequence (P00750 36-562): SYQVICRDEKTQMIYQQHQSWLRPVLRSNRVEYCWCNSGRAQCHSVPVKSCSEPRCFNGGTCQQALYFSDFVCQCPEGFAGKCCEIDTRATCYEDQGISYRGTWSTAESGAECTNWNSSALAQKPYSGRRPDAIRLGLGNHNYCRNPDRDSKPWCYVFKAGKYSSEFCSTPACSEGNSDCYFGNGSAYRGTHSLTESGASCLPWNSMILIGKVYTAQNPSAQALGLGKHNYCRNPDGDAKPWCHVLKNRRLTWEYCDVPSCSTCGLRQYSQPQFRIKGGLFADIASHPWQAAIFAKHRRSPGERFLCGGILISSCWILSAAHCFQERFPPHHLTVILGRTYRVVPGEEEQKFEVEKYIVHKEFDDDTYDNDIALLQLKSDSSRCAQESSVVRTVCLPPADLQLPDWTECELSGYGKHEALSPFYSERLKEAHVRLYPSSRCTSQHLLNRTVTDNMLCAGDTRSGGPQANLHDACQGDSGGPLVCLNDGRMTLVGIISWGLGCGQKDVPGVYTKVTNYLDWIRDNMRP

In the case of `NC(=O)C(c1ccccc1)(c1ccc(F)cc1)c1ccc(F)cc1` [senicapoc], the half-life [1] is given as 288 h, the half-life [2] is given as 1 h and the “binding to plasma protein” value [3] is given as 96.8 ± 0.5%. For the same molecule, the “effect on tPA activity (absorbance at 405 nm)” value (human tPA) was “no effect”, the “binding to brain tissue extract” value [4] was 98.1 ± 0.5% and the “expression of IL-1β, TNF-α, IL-6, CD68, NLRP3, IL-2, IFN-γ, IL-4 and IL-10 in the infarcted hemisphere” value ([5]; 40 mg/kg started 3 h, day 8, vs vehicle) was “significantly reduced”. For the same molecule, the “il1b mRNA, Mean Diff. vehicle-treated ipsi vs senicapoc-treated ipsi” value ([5]; fold-change relative to sham, day 8, 40 mg/kg started 3 h, adjusted P <0.001) was 3.115, the “tgfb mRNA, Mean Diff. vehicle-treated ipsi vs senicapoc-treated ipsi” value ([5]; fold-change relative to sham, day 8, adjusted P 0.003) was 2.876 and the “il4 mRNA, Mean Diff. vehicle-treated ipsi vs senicapoc-treated ipsi” value [5, 6] was 2.833. The “nlrp3 mRNA, Mean Diff. vehicle-treated ipsi vs senicapoc-treated ipsi” value [5, 6] was 4.839, the “inos mRNA, Mean Diff. vehicle-treated ipsi vs senicapoc-treated ipsi” value ([5]; fold-change relative to sham, day 8, adjusted P 0.48) was 6.938 and the “bdnf mRNA, Mean Diff. vehicle-treated ipsi vs senicapoc-treated ipsi” value ([5]; fold-change relative to sham, day 8, adjusted P 0.79) was -11.09. The “il17a mRNA, Mean Diff. vehicle-treated ipsi vs senicapoc-treated ipsi” value ([5]; fold-change relative to sham, day 8, adjusted P 0.98) was 0.3131, the “cd68 mRNA, Mean Diff. vehicle-treated ipsi vs senicapoc-treated ipsi” value [5, 7] was 12.76 and the “ifng mRNA, Mean Diff. vehicle-treated ipsi vs senicapoc-treated ipsi” value [5, 7] was 8.327. For the same molecule, the “il2 mRNA, Mean Diff. vehicle-treated ipsi vs senicapoc-treated ipsi” value [5, 7] was 10.6, the “il6 mRNA, Mean Diff. vehicle-treated ipsi vs senicapoc-treated ipsi” value [5, 7] was 7.107 and the “il10 mRNA, Mean Diff. vehicle-treated ipsi vs senicapoc-treated ipsi” value [5, 7] was 13.82. The “tnfa mRNA, Mean Diff. vehicle-treated ipsi vs senicapoc-treated ipsi” value [5, 7] was 6.221.
